The target in experiment [1] is T1, Estrogen Receptor-Alpha (ERα) (Homo sapiens, UniProt P03372).
T1 construct: endogenous in cells; host or cells: MCF-7 (MCF7) cells
T1 sequence (P03372 1-595): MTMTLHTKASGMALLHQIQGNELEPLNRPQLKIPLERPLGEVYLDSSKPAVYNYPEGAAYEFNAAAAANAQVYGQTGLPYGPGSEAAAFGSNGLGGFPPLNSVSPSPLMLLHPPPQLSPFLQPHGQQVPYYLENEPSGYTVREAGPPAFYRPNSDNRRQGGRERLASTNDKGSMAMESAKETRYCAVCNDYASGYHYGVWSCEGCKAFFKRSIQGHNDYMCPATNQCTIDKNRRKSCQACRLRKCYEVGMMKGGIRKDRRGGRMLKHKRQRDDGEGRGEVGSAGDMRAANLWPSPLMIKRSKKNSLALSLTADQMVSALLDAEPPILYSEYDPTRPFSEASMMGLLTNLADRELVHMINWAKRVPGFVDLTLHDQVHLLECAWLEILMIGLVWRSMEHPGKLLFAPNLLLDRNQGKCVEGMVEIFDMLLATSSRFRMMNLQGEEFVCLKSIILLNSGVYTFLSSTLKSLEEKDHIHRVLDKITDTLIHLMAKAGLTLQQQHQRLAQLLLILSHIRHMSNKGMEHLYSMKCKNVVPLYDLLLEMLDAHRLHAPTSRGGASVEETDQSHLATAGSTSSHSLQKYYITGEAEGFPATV
Briefly: Estrogen Receptor-Alpha (ERα) degradation assay in MCF-7 cells (western blot / In-Cell Western). It is filed as cell-based. The conditions noted are these: for Dmax: MCF7, read-out: ER Dmax; for DC50: read-out: ER DC50. The protocol: 2. Estrogen Receptor-Alpha (ERα) Degradation Assay in MCF-7 Cells Using Western Blot Method for Table 5.
The exemplary novel ERα degraders were assessed for their activity in degrading ERα in MCF-7 cells via western blot. The assay was carried out in the presence of 10% FBS or high percentage of human or mouse serum. Protocols of the western blot assay are described below.
MCF7 cells were grown in DMEM/F12 with 10% FBS and seeded at 24,000 cells per well in 100 μl into 96-well clear tissue culture plates. The following day, the cells were treated with PROTACs in a […] concentration curve with 100 nM being the top concentration and serial dilutions to make the other concentrations (30 nM, 10 nM, 3 nM, 1 nM, and 0.3 nM). At all concentrations, 0.01% DMSO is the final concentration in the well. The following day, the plates are aspirated, washed with 50 μl of cold PBS. The cells are lysed with 50 μl/well 4° C. Cell Lysis Buffer (Catalog #9803; Cell Signaling Technology, Danvers, MA) (20 mM Tris-HCL (pH 7.5), 150 mM NaCl, 1 mM Na2EDTA, 1 mM EGTA, 1% Triton, 2.5 mM sodium pyrophosphate, 1 mM B-glycerophosphate, 1 mM sodium vanadate, 1 ug/ml leupeptin). Lysates were clarified at 16,000×g for 10 minutes, and 2 μg of protein was subjected to SDS-PAGE analysis and followed by immunoblotting according to standard protocols. The antibodies used were ERα (Cell Signaling Technologies Catalog #8644), and Tubulin (Sigma Catalog #T9026; St. Louis, MO). Detection reagents were Clarity Western ECL substrate (Bio-Rad Catalog #170-5060; Hercules, CA).
Alternatively, MCF7 cells were grown in DMEM/F12 with 10% FBS and seeded at 24,000 cells per well in 500 μl in 24-well clear tissue culture plates. The following day, the cells were treated with PROTACs in a 5-point concentration curve (100 nM, 33 nM, 11 nM, 3.7 nM, and 1.2 nM) in the presence of 0.01% DMSO. After 72 hours, the wells are aspirated and washed with 500 μl of PBS. The cells are lysed with 100 μl/well 4° C. Cell Lysis Buffer (Catalog #9803; Cell Signaling Technology, Danvers, MA) (20 mM Tris-HCL (pH 7.5), 150 mM NaCl, 1 mM Na2EDTA, 1 mM EGTA, 1% Triton, 2.5 mM sodium pyrophosphate, 1 mM B-glycerophosphate, 1 mM sodium vanadate, 1 ug/ml leupeptin). Lysates were clarified at 16,000×g for 10 minutes, and 2 μg of protein was subjected to SDS-PAGE analysis and followed by immunoblotting according to standard protocols. The antibodies used were ERα (Cell Signaling Technologies Catalog #8644), and Tubulin (Sigma Catalog #T9026; St. Louis, MO). Detection reagents were Clarity Western ECL substrate (Bio-Rad Catalog #170-5060; Hercules, CA).
3. Estrogen Receptor-Alpha (ERα) Degradation Assay Using In-Cell Western™ Assay for Table 5.
Degradation of ERα by claimed compounds were determined in MCF7 cells using an In-Cell Western™ assay. Briefly, MCF7 cells were plated in 96-well plates (2000 cells per well in 100 μl media) and incubated at 37° C. under an atmosphere of 5% CO2 in a humidified incubator overnight. One-hundred (100) μl of media containing test compound (at 2× concentration) was added to the appropriate wells to provide 11 serially decreasing concentrations (top final concentration, 1 μM then 3-fold less for the next 10 concentrations); a vehicle control (DMSO) was also added for each compound. For each experiment, all compounds were assayed in duplicate plates. Cells were then incubated for 3 or 5 days in the above-mentioned environment. The assay was terminated by removal of media, a single wash with ice-cold PBS and the addition of 50 μl paraformaldehyde (PFA: 4% in PBS). After 15 minutes in PFA at room temperature, the cells were permeabilized in Tris-phosphate-buffered saline with Tween (0.1%) (TBST) supplemented with Triton X-100 (0.5%) for 15 minutes. Cells were then blocked in BSA (TBST with BSA, 3%) for one hour. […]
Background: In western blotting, separated proteins are transferred to a membrane and probed.

In experiment [2] the test system is estrogen responsive element/promoter/luciferase reporter gene. Briefly: ERE Luciferase Assay in T47D-KBluc cells. It is filed as cell-based, human. The conditions noted are these: Homo sapiens, 24 hours, luciferase activity, read-out: Target Engagement IC50. The protocol: 1. ERE Luciferase Assay for Compounds in Table 5.
T47D-KBluc cells (ATCC® #CRL_2865, T47D human breast cancer cells stably transfected with estrogen responsive element/promoter/luciferase reporter gene) were seeded into 96-well white opaque plates in RPMI growth medium supplemented with 10% fetal bovine serum (FBS) and allowed to adhere overnight in a 37° C. humidified incubator. The following day, cells were treated with PROTACs in a 12-point concentration curve (top final concentration of 300 nM with subsequent concentrations being 3-fold less with 2 pM being the lowest concentration in the assay). Each PROTAC was tested independently in two experiments on 96-well plates. After 24 hours, media was removed and lysis buffer was added to the wells. Following lysis, Bright-Glo™ Luciferase Assay Substrate (Promega, Madison WI) was added and the luciferase activity was measured using a Cytation 3 plate reader (BioTek™, Winooski, VT). Each compound was assayed in duplicate and the activity was calculated as IC50 using GraphPad Prism software (San Diego, CA).

These results are taken from patent US12239711B2, “Cereblon ligands and bifunctional compounds comprising the same” (Arvinas Operations, Inc., priority 2014, dated 2025).

One may read the Dmax as the greatest extent of degradation seen. Broadly, the DC50 is the midpoint of the concentration-degradation curve. The term IC50 denotes the midpoint of a concentration-inhibition curve.

`O=C1CCC(N2Cc3cc(N4CCN(CCCC(F)(F)COc5ccc([C@@H]6c7ccc(O)cc7CC[C@@H]6c6ccccc6)cc5)CC4)cc(OC(F)F)c3C2=O)C(=O)N1` (stereo partly drawn) [compound 21, 3-[5-[4-[4,4-difluoro-5-[4-[(1R,2S)-6-hydroxy-2-phenyl-tetralin-1-yl]phenoxy]pentyl]piperazin-1-yl]-7-(difluoromethoxy)-1-oxo-isoindolin-2-yl]piperidine-2,6-dione]: in experiment [1], the Dmax lay in the range of 50 to 75% and the 50% degradation concentration (DC50) was 1 to 10 nM. Further, the IC50 in experiment [2] is 2.5 nM.

As to `O=C1CCC(N2Cc3cc(N4CCN(CCC5CCN(c6ccc([C@@H]7c8ccc(O)cc8CC[C@@H]7c7ccccc7)cc6)CC5)CC4)cc(OC(F)F)c3C2=O)C(=O)N1` (stereo partly drawn) [compound 22, 3-[7-(difluoromethoxy)-5-[4-[2-[1-[4-[(1R,2S)-6-hydroxy-2-phenyl-tetralin-1-yl]phenyl]-4-piperidyl]ethyl]piperazin-1-yl]-1-oxo-isoindolin-2-yl]piperidine-2,6-dione], in experiment [1], the Dmax is at least 75% and the DC50 was 1 to 10 nM. Also, the IC50 in experiment [2] was found to be 4.4 nM.

With `O=C1CCC(N2Cc3cc(N4CCN(CCC5CC(Oc6ccc([C@@H]7c8ccc(O)cc8CC[C@@H]7c7ccccc7)cc6)C5)CC4)cc(OC(F)F)c3C2=O)C(=O)N1` (stereo partly drawn) [compound 23, 3-[7-(difluoromethoxy)-5-[4-[2-[3-[4-[(1R,2S)-6-hydroxy-2-phenyl-tetralin-1-yl]phenoxy]cyclobutyl]ethyl]piperazin-1-yl]-1-oxo-isoindolin-2-yl]piperidine-2,6-dione], in experiment [1], the Dmax fell in the range of 50 to 75% and the 50% degradation concentration (DC50) fell in the range of 1 to 10 nM. Besides, the IC50 in experiment [2] turned out to be 1.8 nM.

Turning to `COc1cc(N2CCN(CCC3CCN(c4ccc([C@@H]5c6ccc(O)cc6CC[C@@H]5c5ccccc5)cc4F)CC3)CC2)cc2c1C(=O)N(C1CCC(=O)NC1=O)C2` (stereo partly drawn) [compound 24, 3-[5-[4-[2-[1-[2-fluoro-4-[(1R,2S)-6-hydroxy-2-phenyl-tetralin-1-yl]phenyl]-4-piperidyl]ethyl]piperazin-1-yl]-7-methoxy-1-oxo-isoindolin-2-yl]piperidine-2,6-dione], in experiment [1], the greatest degradation seen (Dmax) is at least 75% and the 50% degradation concentration (DC50) lay within 1 to 10 nM. Moreover, the 50% inhibitory concentration (IC50) in experiment [2] came out at 0.7 nM.

Consider `O=C1CCC(n2nc3cc(N4CCN(CCCCCOc5ccc([C@@H]6c7ccc(O)cc7CC[C@@H]6c6ccccc6)cc5)CC4)ccn3c2=O)C(=O)N1` (stereo partly drawn) [compound 25, 3-{7-[4-(5-{4-[(1R,2S)-6-hydroxy-2-phenyl-1,2,3,4-tetrahydronaphthalen-1-yl]phenoxy}pentyl)piperazin-1-yl]-3-oxo-2H,3H-[1,2,4]triazolo[4,3-a]pyridin-2-yl}piperidine-2,6-dione], for which, in experiment [1], the greatest degradation seen (Dmax) is below 50%. Further, the IC50 in experiment [2] was 0.5 nM.

With `COc1cc(N2CCN(CC(=O)C3CC(Oc4ccc([C@@H]5c6ccc(O)cc6CC[C@@H]5c5ccccc5)cc4)C3)CC2)cc2c1C(=O)N(C1CCC(=O)NC1=O)C2` (stereo partly drawn) [compound 26, 3-[5-[4-[2-[3-[4-[(1R,2S)-6-hydroxy-2-phenyl-tetralin-1-yl]phenoxy]cyclobutyl]-2-oxo-ethyl]piperazin-1-yl]-7-methoxy-1-oxo-isoindolin-2-yl]piperidine-2,6-dione], in experiment [1], the maximal degradation (Dmax) was at least 75% and the DC50 was below 1 nM. Further, in experiment [2], the IC50 is 0.7 nM.

Take `O=C1CCC(N2Cc3cc(N4CCN(CCC5(O)CC(Oc6ccc([C@@H]7c8ccc(O)cc8CC[C@@H]7c7ccccc7)cc6)C5)CC4)cc(OC(F)F)c3C2=O)C(=O)N1` (stereo partly drawn) [compound 27, 3-[7-(difluoromethoxy)-5-[4-[2-[1-hydroxy-3-[4-[(1R,2S)-6-hydroxy-2-phenyl-tetralin-1-yl]phenoxy]cyclobutyl]ethyl]piperazin-1-yl]-1-oxo-isoindolin-2-yl]piperidine-2,6-dione]: in experiment [1], the greatest degradation seen (Dmax) lay in the range of 50 to 75% and the half-maximal degradation concentration (DC50) was below 1 nM. The half-maximal inhibitory concentration (IC50) in experiment [2] turned out to be 0.5 nM.

`COc1cc(N2CCN(CCC3(O)CC(Oc4ccc([C@@H]5c6ccc(O)cc6CC[C@@H]5c5ccccc5)cc4)C3)CC2)cc2c1C(=O)N(C1CCC(=O)NC1=O)C2` (stereo partly drawn) [compound 28, 3-[5-[4-[2-[1-hydroxy-3-[4-[(1R,2S)-6-hydroxy-2-phenyl-tetralin-1-yl]phenoxy]cyclobutyl]ethyl]piperazin-1-yl]-7-methoxy-1-oxo-isoindolin-2-yl]piperidine-2,6-dione]: in experiment [1], the maximal degradation (Dmax) was at least 75% and the 50% degradation concentration (DC50) was below 1 nM. Also, the half-maximal inhibitory concentration (IC50) in experiment [2] was 0.3 nM.

`O=C1CCC(N2C(=O)c3ccc(N4CCN(CC5CCN(c6ccc([C@@H]7c8ccc(O)cc8CC[C@@H]7c7ccccc7)cc6)CC5)CC4)cc3C23CC3)C(=O)N1` (stereo partly drawn) [compound 29, 3-(6′-{4-[(1-{4-[(1R,2S)-6-hydroxy-2-phenyl-1,2,3,4-tetrahydronaphthalen-1-yl]phenyl}piperidin-4-yl)methyl]piperazin-1-yl}-3′-oxo-2′,3′-dihydrospiro[cyclopropane-1,1′-isoindole]-2′-yl)piperidine-2,6-dione]: the maximal degradation (Dmax) in experiment [1] was below 50%. Moreover, the IC50 in experiment [2] came to 2.4 nM.

As to `O=C1CCC(N2C(=O)c3ccc(N4CCN(CC5CCN(c6ccc([C@@H]7c8ccc(O)cc8CC[C@@H]7c7ccccc7)cc6F)CC5)CC4)cc3C23CC3)C(=O)N1` (stereo partly drawn) [compound 30, 3-[6′-[4-[[1-[2-fluoro-4-[(1R,2S)-6-hydroxy-2-phenyl-tetralin-1-yl]phenyl]-4-piperidyl]methyl]piperazin-1-yl]-3′-oxo-spiro[cyclopropane-1,1′-isoindoline]-2′-yl]piperidine-2,6-dione], in experiment [1], the Dmax was in the range of 50 to 75% and the DC50 was 1 to 10 nM. In addition, in experiment [2], the IC50 is 2.1 nM.
